Test results as given in PubChem BioAssay (NCI).
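GI50 = concentration required for 50% inhibition of growth. Definition used: TGI = concentration required for complete inhibition of growth.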

Assays:
Assay in all cases: growth of human tumour cells (NCI), 384-well format
SNB-19 CNS = system: SNB-19 CNS
UO-31 renal = system: UO-31 renal
K-562 leukemia = system: K-562 leukemia
NCI-H322M lung = system: NCI-H322M lung
NCI-H226 lung = system: NCI-H226 lung
PC-3 prostate = system: PC-3 prostate
DU-145 prostate = system: DU-145 prostate
786-0 renal = system: 786-0 renal
SF-268 CNS = system: SF-268 CNS
NCI-H23 lung = system: NCI-H23 lung
MDA-MB-468 breast = system: MDA-MB-468 breast
A549 NSCLC = system: A549 NSCLC
M14 melanoma = system: M14 melanoma
RPMI-8226 leukemia = system: RPMI-8226 leukemia
NCI-H460 NSCLC = system: NCI-H460 NSCLC
CAKI-1 renal = system: CAKI-1 renal
A498 renal = system: A498 renal
HL-60(TB) leukemia = system: HL-60(TB) leukemia
KM12 colon = system: KM12 colon
SK-OV-3 ovarian = system: SK-OV-3 ovarian
HCT-116 colon = system: HCT-116 colon
TK-10 renal = system: TK-10 renal
NCI-H522 lung = system: NCI-H522 lung
MCF7 breast = system: MCF7 breast
HOP-62 NSCLC = system: HOP-62 NSCLC
HCC-2998 colon = system: HCC-2998 colon
MOLT-4 leukemia = system: MOLT-4 leukemia
HCT-15 colon = system: HCT-15 colon
MALME-3M melanoma = system: MALME-3M melanoma
T-47D breast = system: T-47D breast
HS 578T breast = system: HS 578T breast
IGROV1 ovarian = system: IGROV1 ovarian
NCI/ADR-RES ovarian = system: NCI/ADR-RES ovarian
ACHN renal = system: ACHN renal
SR leukemia = system: SR leukemia
SF-539 CNS = system: SF-539 CNS
HOP-92 NSCLC = system: HOP-92 NSCLC
HT29 colon = system: HT29 colon
MDA-MB-231 breast = system: MDA-MB-231 breast
UACC-62 melanoma = system: UACC-62 melanoma
LOX IMVI melanoma = system: LOX IMVI melanoma
SNB-75 CNS = system: SNB-75 CNS
SF-295 CNS = system: SF-295 CNS
BT-549 breast = system: BT-549 breast
RXF 393 renal = system: RXF 393 renal
SW-620 colon = system: SW-620 colon
COLO 205 colon = system: COLO 205 colon
UACC-257 melanoma = system: UACC-257 melanoma
OVCAR-3 ovarian = system: OVCAR-3 ovarian
U251 glioblastoma = system: U251 glioblastoma
EKVX NSCLC = system: EKVX NSCLC
OVCAR-4 ovarian = system: OVCAR-4 ovarian
SK-MEL-5 melanoma = system: SK-MEL-5 melanoma
CCRF-CEM leukemia = system: CCRF-CEM leukemia
SN12C renal = system: SN12C renal
OVCAR-8 ovarian = system: OVCAR-8 ovarian

Question: For `Cn1nccc1Nc1nccc(-c2ccn([C@H](CO)c3ccc(Cl)c(F)c3)c(=O)c2)n1`, which GI50 (SNB-19 CNS) is on record?
Answer: 16.6 µM

Question: What about the TGI (SNB-19 CNS) of the same compound?
Answer: 52 µM

Question: And the GI50 (UO-31 renal)?
Answer: 30 µM

Question: And the TGI (UO-31 renal)?
Answer: > 100 µM

Question: What about the GI50 (K-562 leukemia) of the same compound?
Answer: 6.93 µM

Question: And the TGI (K-562 leukemia)?
Answer: 21.7 µM

Question: What about the GI50 (NCI-H322M lung) of the same compound?
Answer: 15.6 µM

Question: What about the TGI (NCI-H322M lung) of the same compound?
Answer: > 100 µM

Question: And the GI50 (NCI-H226 lung)?
Answer: 26.4 µM

Question: What about the TGI (NCI-H226 lung) of the same compound?
Answer: 64.8 µM

Question: What about the GI50 (PC-3 prostate) of the same compound?
Answer: 29.8 µM

Question: What about the TGI (PC-3 prostate) of the same compound?
Answer: 84.3 µM

Question: What about the GI50 (DU-145 prostate) of the same compound?
Answer: 18.3 µM

Question: What about the TGI (DU-145 prostate) of the same compound?
Answer: 38.1 µM

Question: What about the GI50 ([…]-0 renal) of the same compound?
Answer: 19.9 µM

Question: What about the TGI (786-0 renal) of the same compound?
Answer: 58.7 µM

Question: What about the GI50 (SF-268 CNS) of the same compound?
Answer: 38.1 µM

Question: And the TGI (SF-268 CNS)?
Answer: > 100 µM

Question: What about the GI50 (NCI-H23 lung) of the same compound?
Answer: 0.899 µM

Question: And the TGI (NCI-H23 lung)?
Answer: 24 µM

Question: What about the GI50 (MDA-MB-468 breast) of the same compound?
Answer: 23.7 µM

Question: And the TGI (MDA-MB-468 breast)?
Answer: 48.5 µM

Question: What about the GI50 (A549 NSCLC) of the same compound?
Answer: 25.3 µM

Question: And the TGI (A549 NSCLC)?
Answer: > 100 µM

Question: What about the GI50 (M14 melanoma) of the same compound?
Answer: 0.0794 µM

Question: And the TGI (M14 melanoma)?
Answer: 10.3 µM

Question: What about the GI50 (RPMI-8226 leukemia) of the same compound?
Answer: 16.5 µM

Question: And the TGI (RPMI-8226 leukemia)?
Answer: 31 µM

Question: What about the GI50 (NCI-H460 NSCLC) of the same compound?
Answer: 20.4 µM

Question: What about the TGI (NCI-H460 NSCLC) of the same compound?
Answer: 45.1 µM

Question: What about the GI50 (CAKI-1 renal) of the same compound?
Answer: 15.5 µM

Question: What about the TGI (CAKI-1 renal) of the same compound?
Answer: > 100 µM

Question: And the GI50 (A498 renal)?
Answer: 18.1 µM

Question: And the TGI (A498 renal)?
Answer: 33.9 µM

Question: What about the GI50 (HL-60(TB) leukemia) of the same compound?
Answer: 0.11 µM

Question: What about the TGI (HL-60(TB) leukemia) of the same compound?
Answer: 13.1 µM

Question: What about the GI50 (KM12 colon) of the same compound?
Answer: 18.6 µM

Question: And the TGI (KM12 colon)?
Answer: > 100 µM

Question: What about the GI50 (SK-OV-3 ovarian) of the same compound?
Answer: 15.9 µM

Question: And the TGI (SK-OV-3 ovarian)?
Answer: 33.3 µM

Question: And the GI50 (HCT-116 colon)?
Answer: 1.78 µM

Question: What about the TGI (HCT-116 colon) of the same compound?
Answer: 11.8 µM

Question: And the GI50 (TK-10 renal)?
Answer: 21.2 µM

Question: What about the TGI (TK-10 renal) of the same compound?
Answer: 51.7 µM

Question: And the GI50 (NCI-H522 lung)?
Answer: 2.66 µM

Question: And the TGI (NCI-H522 lung)?
Answer: 9.45 µM

Question: What about the GI50 (MCF7 breast) of the same compound?
Answer: 37.4 µM

Question: And the TGI (MCF7 breast)?
Answer: > 100 µM

Question: What about the GI50 (HOP-62 NSCLC) of the same compound?
Answer: 19.5 µM

Question: And the TGI (HOP-62 NSCLC)?
Answer: 47.2 µM

Question: What about the GI50 (HCC-2998 colon) of the same compound?
Answer: 0.565 µM

Question: And the TGI (HCC-2998 colon)?
Answer: 12.1 µM

Question: And the GI50 (MOLT-4 leukemia)?
Answer: 11.6 µM

Question: And the TGI (MOLT-4 leukemia)?
Answer: 24 µM

Question: And the GI50 (HCT-15 colon)?
Answer: 28.6 µM

Question: What about the TGI (HCT-15 colon) of the same compound?
Answer: > 100 µM

Question: And the GI50 (MALME-3M melanoma)?
Answer: 0.0289 µM

Question: And the TGI (MALME-3M melanoma)?
Answer: 0.104 µM

Question: What about the GI50 (T-47D breast) of the same compound?
Answer: 11.1 µM

Question: And the TGI (T-47D breast)?
Answer: 54.5 µM

Question: And the GI50 (HS 578T breast)?
Answer: 18.8 µM

Question: What about the TGI (HS 578T breast) of the same compound?
Answer: 34.1 µM

Question: And the GI50 (IGROV1 ovarian)?
Answer: 14 µM

Question: And the TGI (IGROV1 ovarian)?
Answer: 39.5 µM

Question: And the GI50 (NCI/ADR-RES ovarian)?
Answer: 78.1 µM

Question: And the TGI (NCI/ADR-RES ovarian)?
Answer: > 100 µM

Question: What about the GI50 (ACHN renal) of the same compound?
Answer: 45 µM

Question: And the TGI (ACHN renal)?
Answer: > 100 µM

Question: What about the GI50 (SR leukemia) of the same compound?
Answer: 47.8 µM

Question: What about the TGI (SR leukemia) of the same compound?
Answer: 85.2 µM

Question: What about the GI50 (SF-539 CNS) of the same compound?
Answer: 1.76 µM

Question: And the TGI (SF-539 CNS)?
Answer: 3.55 µM

Question: And the GI50 (HOP-92 NSCLC)?
Answer: 14.3 µM

Question: And the TGI (HOP-92 NSCLC)?
Answer: 28.2 µM

Question: What about the GI50 (HT29 colon) of the same compound?
Answer: 0.443 µM

Question: And the TGI (HT29 colon)?
Answer: 20.7 µM

Question: And the GI50 (MDA-MB-231 breast)?
Answer: 21.3 µM

Question: And the TGI (MDA-MB-231 breast)?
Answer: > 100 µM

Question: What about the GI50 (UACC-62 melanoma) of the same compound?
Answer: 0.0678 µM

Question: What about the TGI (UACC-62 melanoma) of the same compound?
Answer: 14.8 µM

Question: What about the GI50 (LOX IMVI melanoma) of the same compound?
Answer: 1.08 µM

Question: And the TGI (LOX IMVI melanoma)?
Answer: 11.7 µM

Question: And the GI50 (SNB-75 CNS)?
Answer: 22.6 µM

Question: What about the TGI (SNB-75 CNS) of the same compound?
Answer: 45.3 µM

Question: And the GI50 (SF-295 CNS)?
Answer: 54 µM

Question: And the TGI (SF-295 CNS)?
Answer: > 100 µM

Question: And the GI50 (BT-549 breast)?
Answer: 15.1 µM

Question: And the TGI (BT-549 breast)?
Answer: 34.6 µM

Question: And the GI50 (RXF 393 renal)?
Answer: 21.2 µM

Question: What about the TGI (RXF 393 renal) of the same compound?
Answer: 49 µM

Question: What about the GI50 (SW-620 colon) of the same compound?
Answer: 1.65 µM

Question: And the TGI (SW-620 colon)?
Answer: 14.6 µM

Question: And the GI50 (COLO 205 colon)?
Answer: 0.102 µM

Question: What about the TGI (COLO 205 colon) of the same compound?
Answer: 12.9 µM

Question: What about the GI50 (UACC-257 melanoma) of the same compound?
Answer: 0.209 µM

Question: What about the TGI (UACC-257 melanoma) of the same compound?
Answer: > 100 µM

Question: And the GI50 (OVCAR-3 ovarian)?
Answer: 18.5 µM

Question: What about the TGI (OVCAR-3 ovarian) of the same compound?
Answer: 54.3 µM

Question: What about the GI50 (U251 glioblastoma) of the same compound?
Answer: 7.42 µM

Question: What about the TGI (U251 glioblastoma) of the same compound?
Answer: 20.9 µM

Question: And the GI50 (EKVX NSCLC)?
Answer: 76.5 µM

Question: And the TGI (EKVX NSCLC)?
Answer: > 100 µM

Question: And the GI50 (OVCAR-4 ovarian)?
Answer: > 100 µM

Question: And the TGI (OVCAR-4 ovarian)?
Answer: > 100 µM

Question: What about the GI50 (SK-MEL-5 melanoma) of the same compound?
Answer: 0.409 µM

Question: And the TGI (SK-MEL-5 melanoma)?
Answer: 22.1 µM

Question: What about the GI50 (CCRF-CEM leukemia) of the same compound?
Answer: 4.29 µM

Question: What about the TGI (CCRF-CEM leukemia) of the same compound?
Answer: 15 µM

Question: And the GI50 (SN12C renal)?
Answer: 1.67 µM

Question: And the TGI (SN12C renal)?
Answer: 4.67 µM

Question: What about the GI50 (OVCAR-8 ovarian) of the same compound?
Answer: 3.44 µM

Question: And the TGI (OVCAR-8 ovarian)?
Answer: 10.7 µM
